Consider three compounds from ChEMBL document CHEMBL1133223, “Mechanistic studies on prolyl-4-hydroxylase: the vitamin C requiring uncoupled oxidation” (Bioorg Med Chem Lett, 2000).

What all share (format): ADME
The nature of data set [1]: V/K by incubating with prolyl-4-hydroxylase under standard assay conditions.
Data set [2] is described as follows: Km by incubating with prolyl-4-hydroxylase under standard assay conditions.
A short description of data set [3]: Percent Vmax by incubating with prolyl-4-hydroxylase under standard assay conditions.

Square brackets hold non-standard residues; d marks the D form. Peptide text beside a SMILES is read from it. * marks the point of attachment. ΔPro = O=C(O)[C@@H]1C=CCN1; Cbz = O=C(OCc1ccccc1)*

As usually defined, the Km is the concentration of substrate that gives half-maximal velocity. `CCOC(=O)CNC(=O)[C@@H]1CCCN1C(=O)[C@H](Cc1ccccc1)NC(=O)CNC(=O)OCc1ccccc1` (Cbz-GFPG-OEt) registered a V/K in data set [1] of 3.4. For the same compound, in data set [2], the Michaelis constant (Km) is 520 µM. Moreover, in data set [3], the Vmax is reported as 30%.
Turning to `O=C(O)CNC(=O)[C@@H]1CCCN1C(=O)[C@@H]1CCCN1` (H-Pro-Pro-Gly-OH), the Km in data set [2] was 200 µM. In addition, the Vmax in data set [3] was 100%.
Regarding `CCOC(=O)CNC(=O)[C@@H]1C=CCN1C(=O)[C@H](Cc1ccccc1)NC(=O)CNC(=O)OCc1ccccc1` (Cbz-GF[ΔPro]G-OEt), the Michaelis constant (Km) in data set [2] was 200 µM. Also, in data set [3], the Vmax was 95%.
